Values quoted from earlier work as cited in patent US6967090B2, “Nucleic acid and protein sequences of bovine epidermal growth factor” (Her Majesty the Queen in right of Canada, as represented by …, priority 2001, dated 2005).

What was measured:
[1] = daily, 100 μg/kg body weight for nine days; U.S. Pat. No. 5,753,622
[2] = test system: jejunal brush-border membranes; details: rodent
gut cells = details: piglet; WO 88/04180
enteric infections = details: oral administration; Buret et al., 1997
rotavirus = details: piglets infected with rotavirus; Zijlstra et al., 1994
gastric acid secretion = details: Hollenberg and Gregory 1980
EGF receptor = EGF receptor (Homo sapiens, UniProt P00533); details: Tadaki and Niyogi, 1993

## EGF: 6 kDa polypeptide composed of 53 amino acids; species of origin not stated in the cited studies
[1]
  weight gain: enhances weight gain
[2]
  electrolytes, glucose and proline transport: increases electrolytes, glucose and proline transport
Gut cells
  lactase and alkaline phosphatase activities: without any marked effect
  sucrase and maltase activity: enhancing both sucrase and maltase activity
Enteric infections
  rate of enteric infections: reduces the rate of enteric infections
  reduction in weight gain caused by infection: prevents the reduction in weight gain caused by infection
rotavirus
  intestinal functions: improves intestinal functions

## human EGF, lacking the last five amino acids on the COOH end: truncated human EGF lacking the last five amino acids on the COOH end (NSDSECPLSHDGYCLHDGVCMYIEALDKYACNCVVGYIGERCQYRDLK; not fully specified; Epidermal growth factor; UniProt P01133 971-1018, looked up, fragment)
Gastric acid secretion
  capacity to inhibit gastric acid secretion: retains its capacity to inhibit gastric acid secretion

## human EGF: human EGF variant with tyrosine replaced by phenylalanine at position 13 (NSDSECPLSHDGFCLHDGVCMYIEALDKYACNCVVGYIGERCQYRDLKWWELR; not fully specified; Epidermal growth factor; UniProt P01133 971-1023, looked up, variant Y13F)
EGF receptor
  effect of substitution on binding to receptor: little effect on the binding
